Here are results for 39 molecules from patent US7119073B2, “Peptides and their use as inhibitors of hepatitis C virus ns3 protease” (Istituto Di Ricerche Di Biologia Molecolare P. Angeletti SpA, priority 2001, dated 2006).

Molecules are shown by their SMILES. Where a SMILES comes first, the peptide text is derived from it. The star is where a group is joined. NHPhenethyl = c1ccc(CCN*)cc1; Boc = CC(C)(C)OC(=O)*

For the first test, the target named is T1, full length NS3 protein noncovalently complexed with the full-length NS4A cofactor protein (NS3/NS4A complex) (Hepatitis C virus genotype 1b, UniProt P26663).
T1 construct: full length NS3 protein spanning residues 1027–1657 of the HCV polyprotein
T1 sequence (P26663 1027-1657): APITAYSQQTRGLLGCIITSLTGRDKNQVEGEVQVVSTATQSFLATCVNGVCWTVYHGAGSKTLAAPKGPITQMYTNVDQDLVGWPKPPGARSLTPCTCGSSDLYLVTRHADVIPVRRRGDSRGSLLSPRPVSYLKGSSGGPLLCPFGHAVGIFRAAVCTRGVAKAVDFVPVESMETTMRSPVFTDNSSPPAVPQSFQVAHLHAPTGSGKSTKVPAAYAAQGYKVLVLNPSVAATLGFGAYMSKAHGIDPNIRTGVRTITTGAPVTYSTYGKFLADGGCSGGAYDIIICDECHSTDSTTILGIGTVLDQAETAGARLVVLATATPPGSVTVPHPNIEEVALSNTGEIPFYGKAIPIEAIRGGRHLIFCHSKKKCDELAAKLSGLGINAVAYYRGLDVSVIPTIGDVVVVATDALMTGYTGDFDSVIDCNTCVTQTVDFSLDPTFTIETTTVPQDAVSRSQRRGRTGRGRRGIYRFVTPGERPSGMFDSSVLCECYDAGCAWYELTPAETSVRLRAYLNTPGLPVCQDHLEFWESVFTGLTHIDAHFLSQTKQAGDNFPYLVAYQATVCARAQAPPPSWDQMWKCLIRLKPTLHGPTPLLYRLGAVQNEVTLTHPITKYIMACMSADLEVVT
T1 sequence (P26663 1658-1711): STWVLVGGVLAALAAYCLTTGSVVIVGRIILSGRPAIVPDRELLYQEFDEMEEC
The test is described as follows: Full-length NS3-NS4A heterodimer protein assay (Assay A). Type of test: biochemical, hepatitis C virus (HCV). The settings on record: Table 1; full-length NS3/NS4A, NS5A-NS5B peptide substrate; read-out: Assay A. The method, then:
Full-Length NS3-NS4A Heterodimer Protein Assay (Assay A)
(Gallinari, P., Paolini, C., Brennan, D., Nardi, C., Steinkühler, C. and De Francesco, R. Modulation of hepatitis C virus NS3 protease and helicase activities through the interaction with NS4A. Biochemistry 38, 5620–5632, 1999)
In this assay the full length NS3 protein spanning residues 1027–1657 of the HCV polyprotein, noncovalently complexed with the full-length NS4A cofactor protein (residues 1658–1711) was used. Assays were performed in 60 μl of a buffer containing 50 mM Hepes pH 7.5, 0.15 M NaCl, 0.1% (v/v) Triton X-100, 15% (v/v) glycerol, 10 mM DTT, 2 nM NS3/NS4A complex. To this assay mix 10 μM (final concentration) of a peptide substrate corresponding to the NS5AB cleavage site and having the sequence of the NS5A-NS5B peptide, were added. Incubation times at 23° C. were adjusted to obtain <10% conversion. Reactions were stopped by the addition of 40 μl of 1% TFA. Cleavage was determined by HPLC using a Merck-Hitachi chromatograph equipped with an autosampler. 80 μl samples were injected on a Lichrospher C18 reversed phase cartridge column (4×74 mm, 5 μm, Merck) and fragments were separated using a 10–40% acetonitrile gradient at 5%/min using a flow rate of 2.5 ml/min. Peak detection was done by monitoring both the absorbance at 220 nm and tryptophan fluorescence (λex=280 nm, λem=350 nm). Cleavage products were quantitated by integration of chromatograms with respect to appropriate standards. Kinetic parameters were calculated from nonlinear least-squares fit of initial rates as a function of substrate concentration with the help of a Kaleidagraph software, assuming Michaelis-Menten kinetics.
Ki values of peptide inhibitors were calculated from substrate titration experiments performed in the presence of increasing amounts of inhibitor. Experimental data sets were simultaneously fitted to eg.1 using a multicurve fit macro with the help of a Sigmaplot software: V=(VmaxS)/(Km([…])+S); (eq.1) Alternatively, Ki values were derived from IC50 values, calculated using a four-parameter logistic function, according to eq.2: IC50=(1+S/Km)Ki (eq.2)
On to `CC(C)COC(=O)NC(C(=O)NC(CC(C)C)C(=O)NC(CC(F)F)C(=O)NCCc1ccccc1CCC(=O)O)C(C)C` (stereo not drawn) [Compound 125], for which the IC50 was under 100 µM.

Staying with this test, now noted: Table 5; full-length NS3/NS4A; read-out: AssayA.
As for `CC(C)COC(=O)N[C@@H](CCC(=O)O)C(=O)N1C[C@H](c2ccccc2)C[C@H]1C(=O)N[C@@H](CC(F)F)C(=O)NCCc1c[nH]c2ccccc12` [Compound 575], the IC50 is under 100 µM.
On to `CC(C)[C@H](NC(=O)OCC1CC1)C(=O)N1C[C@H](C2CCCCC2)C[C@H]1C(=O)N[C@@H](CC(F)F)C(=O)NCCc1c(F)cc(C(=O)O)cc1F` [Compound 540], for which the IC50 is under 1 µM.
As for `CC(C)COC(=O)N[C@H](C(=O)N1C[C@H](c2ccccc2)C[C@H]1C(=O)N[C@@H](CC(F)F)C(=O)NCCc1c(F)cc(-c2nn[nH]n2)cc1F)C(C)C` [Compound 554], the IC50 was under 1 µM.
Take `CC(C)COC(=O)N[C@H](C(=O)N1C[C@H](c2ccccc2)C[C@H]1C(=O)N[C@@H](CC(F)F)C(=O)NCCc1cccc(OC(C(=O)O)c2ccc(Br)cc2)c1)C(C)C` (mixture of isomers) [Compound 570]: the IC50 was under 1 µM.
Still for that read-out and setting: next, `CC(C)COC(=O)N[C@H](C(=O)N1C[C@H](C2CCCCC2)C[C@H]1C(=O)N[C@@H](CC(F)F)C(=O)NCCc1c(F)ccc(OCC(=O)O)c1F)C(C)C` [Compound 565]: under 1 µM.
The same measure, in the same setting: next, `CC(C)COC(=O)N[C@@H](CCC(=O)O)C(=O)N1C[C@H](c2ccccc2)C[C@H]1C(=O)N[C@@H](CS)C(=O)NCCc1ccc(C(=O)O)cc1` [Compound 512]: under 100 µM; `CC(C)COC(=O)N[C@H](C(=O)N1C[C@H](C2CCCCC2)C[C@H]1C(=O)N[C@@H](CC(F)F)C(=O)NCCc1ccc(C(=O)O)cc1F)C(C)C` [Compound 531]: under 10 µM; `CC(C)COC(=O)N[C@H](C(=O)N1C[C@H](C2CCCCC2)C[C@H]1C(=O)N[C@@H](CC(F)F)C(=O)NCCc1c(F)cc(C(=O)O)cc1F)C(C)(C)C` [Compound 536]: under 10 µM.
As to `CC[C@@H](C)[C@H](NC(=O)OCC(C)C)C(=O)N1C[C@H](C2CCCCC2)C[C@H]1C(=O)N[C@@H](CC(F)F)C(=O)NCCc1c(F)cc(C(=O)O)cc1F` [Compound 535], the IC50 was under 1 µM.
Consider `CC(C)COC(=O)N[C@H](C(=O)N1C[C@H](OCc2ccccc2)C[C@H]1C(=O)N[C@@H](CC(F)(F)F)C(=O)NCCc1c(F)cc(C(=O)O)cc1F)C(C)C` [Compound 530], for which the IC50 was under 10 µM.
Turning to `CCOC(=O)/C=C/c1cccc(CCNC(=O)[C@H](CC(F)F)NC(=O)[C@@H]2C[C@@H](c3ccccc3)CN2C(=O)[C@@H](NC(=O)OCC(C)C)C(C)C)c1` [Compound 559], the IC50 was under 100 µM.
With `CC(C)COC(=O)N[C@H](C(=O)N1C[C@H](c2ccccc2)C[C@H]1C(=O)N[C@@H](CS)C(=O)NCCc1ccc(C(=O)O)cc1)C(C)C` [Compound 516], the IC50 is under 10 µM.
Still for that read-out and setting: next, `CC(C)COC(=O)N[C@H](C(=O)N1C[C@H](SCc2ccccc2)C[C@H]1C(=O)N[C@@H](CC(F)F)C(=O)NCCc1c(F)cc(C(=O)O)cc1F)C(C)C` [Compound 544]: under 10 µM.
Turning to `CC[C@H](C)[C@H](NC(=O)OCC(C)C)C(=O)N1C[C@H](C2CCCCC2)C[C@H]1C(=O)N[C@@H](CC(F)F)C(=O)NCCc1c(F)cc(C(=O)O)cc1F` [Compound 533], the IC50 is under 1 µM.
For `CCC(Nc1cccc(CCNC(=O)[C@H](CC(F)F)NC(=O)[C@@H]2C[C@@H](c3ccccc3)CN2C(=O)[C@@H](NC(=O)OCC(C)C)C(C)C)c1)C(=O)O` (mixture of isomers) [Compound 563], the IC50 was under 10 µM.
Consider `CC(C)COC(=O)N[C@H](C(=O)N1C[C@H](C2CCCCC2)C[C@H]1C(=O)N[C@@H](CC(F)F)C(=O)NCCc1c(F)cc(C(=O)O)cc1F)C1CCCC1` [Compound 538], for which the IC50 is under 1 µM.
With `CC(C)COC(=O)N[C@H](C(=O)N1C[C@H](c2ccccc2)C[C@H]1C(=O)N[C@@H](CS)C(=O)NCCc1ccc(C(=O)O)cc1Cl)C(C)C` [Compound 521], the IC50 was under 1 µM.
With `CC(C)COC(=O)N[C@H](C(=O)N1C[C@H](c2ccccc2)C[C@H]1C(=O)N[C@@H](CC(F)F)C(=O)NCCc1ccc(-c2noc(=O)[nH]2)cc1)C(C)C` [Compound 519], the IC50 is under 100 µM.
`CC(C)COC(=O)N[C@H](C(=O)N1C[C@H](c2ccccc2)C[C@H]1C(=O)N[C@@H](CC(F)F)C(=O)NCCc1cccc(OC(C(=O)O)c2ccccc2)c1)C(C)C` (mixture of isomers) [Compound 569]: the IC50 is under 10 µM.
On to `CC(C)COC(=O)N[C@H](C(=O)N1C[C@H](c2ccccc2)C[C@H]1C(=O)N[C@@H](CC(F)F)C(=O)NCCc1cccc(NC(C(=O)O)c2ccccc2)c1)C(C)C` (mixture of isomers) [Compound 564], for which the IC50 was under 10 µM.

In another test the target is T2, NS3 protease domain complexed to a modified form of the NS4A peptide (Pep4AK) (Hepatitis C virus genotype 1b, UniProt P26663).
T2 construct: NS3 protease domain (residues 1027–1206 of the HCV polyprotein)
T2 sequence (P26663 1027-1206, other chains not shown): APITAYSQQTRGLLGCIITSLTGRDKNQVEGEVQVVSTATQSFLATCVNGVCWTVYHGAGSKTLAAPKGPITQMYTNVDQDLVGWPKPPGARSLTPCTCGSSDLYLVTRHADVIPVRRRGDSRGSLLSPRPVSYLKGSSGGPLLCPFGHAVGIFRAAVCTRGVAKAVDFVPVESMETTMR
The test is described as follows: HCV NS3 protease domain/NS4A cofactor peptide assay (Assay B). It counts as biochemical. The settings on record: Table 1; NS3 protease domain/Pep4AK, 4AB peptide substrate; read-out: Assay B.
Consider `COc1ccc(CCNC(=O)C(CS)NC(=O)C(CC(C)C)NC(=O)C(CCC(=O)O)NC(=O)OCC(C)C)cc1` (stereo not drawn) [Compound 141], for which the IC50 was under 100 µM.
`CC(C)COC(=O)N[C@@H](CCC(=O)O)C(=O)N[C@@H](CC(C)C)C(=O)N[C@@H](CS)C(=O)NCC1(c2ccccc2)CC1` [Compound 109]: the IC50 is under 100 µM.
Still for that read-out and setting: the value for `Cc1ccc(CCNC(=O)C(CS)NC(=O)C(CC(C)C)NC(=O)C(CCC(=O)O)NC(=O)OCC(C)C)cc1` (stereo not drawn) [Compound 140] was under 100 µM.
On the same count and under the same terms, next, `CC(C)CC(NC(=O)C(CCC(=O)O)NC(=O)OC(C)(C)C)C(=O)NC(CS)C(=O)NCCc1ccccc1` (stereo not drawn) [Compound 103] (Boc-Glu-Leu-Cys-NHPhenethyl; configuration not given here): under 100 µM.

The test is the same for the next values; noted with them: Table 2; NS3 protease domain/Pep4AK; read-out: Assay B.
In the case of `CC(C)C[C@H](NC(=O)[C@H](CCC(=O)O)NC(=O)CC(C)CC(=O)O)C(=O)N[C@@H](CS)C(=O)NCCc1ccccc1Cl` (stereo partly drawn) [Compound 245], the IC50 was under 100 µM.
Turning to `CC(C)C[C@H](NC(=O)[C@H](CCC(=O)O)NS(=O)(=O)Cc1ccccc1)C(=O)N[C@@H](CS)C(=O)NCCc1ccc(Cl)cc1Cl` [Compound 256], the IC50 is under 100 µM.
Consider `C=CCCC(=O)N[C@@H](CCC(=O)O)C(=O)N[C@@H](CC(C)C)C(=O)N[C@@H](CS)C(=O)NCCc1ccccc1Cl` [Compound 228], for which the IC50 was under 100 µM.
Take `CC(C)C[C@H](NC(=O)[C@H](CCC(=O)O)NC(=O)C1CCC(C(=O)O)CC1)C(=O)N[C@@H](CS)C(=O)NCCc1ccccc1Cl` (mixture of isomers) [Compound 233]: the IC50 is under 100 µM.
As for `CC(C)C[C@H](NC(=O)[C@H](CCC(=O)O)NS(=O)(=O)c1ccccc1)C(=O)N[C@@H](CS)C(=O)NCCc1ccccc1Cl` [Compound 249], the IC50 was under 100 µM.
`CC(C)C[C@H](NC(=O)[C@H](CCC(=O)O)NC(=O)/C=C/c1ccc([N+](=O)[O-])cc1)C(=O)N[C@@H](CS)C(=O)NCCc1ccccc1Cl` [Compound 218]: the IC50 is under 100 µM.
Still for that read-out and setting: the value for `COc1ccc(CCNC(=O)[C@H](CS)NC(=O)[C@H](CC(C)C)NC(=O)[C@H](CCC(=O)O)NC(=O)C2CCCCC2)cc1` [Compound 231] was under 100 µM; that for `COc1ccc(CCNC(=O)[C@H](CS)NC(=O)[C@H](CC(C)C)NC(=O)[C@H](CCC(=O)O)NC(=O)c2ccccc2)cc1` [Compound 202] was under 100 µM.
Same read-out and setting: next, `CC(C)C[C@H](NC(=O)[C@H](CCC(=O)O)NC(=O)CC(C)(C)CC(=O)O)C(=O)N[C@@H](CS)C(=O)NCCc1ccccc1Cl` [Compound 240]: under 100 µM; `CC(C)C[C@H](NC(=O)[C@H](CCC(=O)O)NC(=O)Cc1ccsc1)C(=O)N[C@@H](CS)C(=O)NCCc1ccccc1Cl` [Compound 222]: under 100 µM.
With `CC(C)C[C@H](NC(=O)[C@H](CCC(=O)O)NC(=O)NCc1ccccc1)C(=O)N[C@@H](CS)C(=O)NCCc1ccc(Cl)cc1Cl` [Compound 248], the IC50 is under 100 µM.

The test is the same for the next values; noted with them: Table 4; NS3 protease domain/Pep4AK; read-out: Assay B.
In the case of `CC(C)COC(=O)N[C@@H](CCC(=O)O)C(=O)N[C@@H](CC(F)F)C(=O)N[C@@H](CS)C(=O)NCCc1ccc(C(=O)O)cc1` [Compound 402], the IC50 is under 100 µM.
`CC(C)COC(=O)N[C@@H](CCC(=O)O)C(=O)NC1(C(=O)N[C@@H](CS)C(=O)NCCc2ccccc2Cl)Cc2ccccc2C1` [Compound 415]: the IC50 is under 100 µM.
Same read-out and setting: the value for `CC[C@H](NC(=O)[C@H](CCC(=O)O)NC(=O)OCC(C)C)C(=O)N[C@@H](CS)C(=O)NCCc1ccccc1Cl` [Compound 401] was under 100 µM.
